# Assay results: patent US20210355547A1, “NON-INVASIVE URINARY BIOMARKERS FOR THE DETECTION OF UROTHELIAL CARCINOMA OF THE BLADDER” (THE JOHNS HOPKINS UNIVERSITY, priority 2018, published 2021)
# Key:
# [1] = test system: spheroid CD24-sh and CD24-Ctrl BFTC 905, BFTC 909, and 5637 cells; assay: Cell viability assay (MTT assay) after cisplatin treatment; type: cell-based; conditions: 5 μM CDDP, 72 h; spheroid CD24-sh vs spheroid CD24-Ctrl cells
# Procedure: (§1) FIG. 2A-2E. The chemoresistant and tumorigenic abilities attenuated by CD24 knockdown in BFTC 905, BFTC 909, and 5637 cell lines. (FIG. 2A) Cell viability after 5 μM cisplatin (CDDP) treatment for 72 h in the spheroid CD24-sh cells, as measured by MTT assay. Cell viability was expressed as the ratio of absorbance values of the spheroid CD24-sh cells related to the spheroid CD24-Ctrl cells considered as 1.0. Data are from three independent experiments. (FIG. 2B) An apoptosis assay of spheroid CD24-sh cells treated with 5 μM CDDP for 72 h. Upper, representative images of early apoptosis (bottom right quadrant) and late apoptosis (top right quadrant); Lower, percentage of apoptotic cells. (FIG. 2C) Western blotting analysis of ABCG2, YAP1, and CD133 in stable CD24-sh and CD24-Ctrl cells. (FIG. 2D) Limiting-dilution xenograft assays in stable spheroid CD24-sh BFTC 909 (upper) and BFTC 905 (lower) cells. Tumor growth was measured after subcutaneous injection of serially diluted spheroid cells (1×10^4, 1×10^3, or 1×10^2 cells per flank) into both flanks of NSG mice (five mice per group). SP, Spheroid. […]
# Cell viability assay (MTT assay). Cell viability was measured using the 3-(4, 5-dimethyl thiazol-2-yl)-2, 5-diphenyltetrazolium bromide (MTT) Proliferation Assay Kit (ATCC; Manassas, Va., USA) according to the manufacturer's protocol. […]
# [2] = test system: spheroid CD24-sh and CD24-Ctrl BFTC 905, BFTC 909, and 5637 cells; assay: Apoptosis assay (PE Annexin V / 7-AAD flow cytometry) after CDDP; type: cell-based; conditions: 5 μM CDDP, 72 h; spheroid cells with CD24 knockdown
# Procedure: as §1, with “Spheroid. (FIG. 2E) Tumor initiation frequency after the xenotransplantation of spheroid CD24-sh BFTC 909 (upper) and BFTC 905 (lower) cells.” for “Spheroid.”
compound,measurement,setting,value
N.N.[Cl][Pt][Cl] [cisplatin],sensitivity of spheroid cells to CDDP treatment (cell viability),[1],spheroid CD24-sh cells were more sensitive to CDDP treatment than spheroid CD24-Ctrl cells
same,anti-apoptotic ability against CDDP treatment,[2],CD24 knockdown significantly attenuated the anti-apoptotic ability against CDDP treatment
